Source: US9440952B2, “Compounds inhibiting leucine-rich repeat kinase enzyme activity” (Merck Sharp & Dohme Corp., priority 2013, dated 2016)
Like-named read-outs stand apart in the source and are kept apart here.

Target: T1, LRRK2(G2019S mutation, GST-LRRK2(amino acids 970-2527)) (Homo sapiens, UniProt Q5S007, G2019S)
T1 construct: GST-LRRK2(amino acids 970-2527); GST (N); purchased Life Technologies Corporation
Assay: LRRK2 Km ATP LanthaScreen Assay
Assay type: biochemical
Experimental: Unless otherwise noted, all LRRK2 IC50 data presented in tables refers to the LRRK2 Km ATP LanthaScreen™ Assay that is described in the Biological Assay section.
The data presented for the 5 mM and Km ATP LanthaScreen™ Assay represents mean IC50 values based on several test results and may have reasonable. deviations depending on the specific conditions and reagents used. Reagents for the LRRK2 5 mM and Km ATP LanthaScreen™ Assay were purchased from Life Technologies Corporation.
Results are analysed using Assay Data Analyzer.

[1] = Km ATP LanthaScreen Assay, LRRK2 G2019S, mean IC50 values, read-out: LRRK2 IC50
[2] = Km ATP LanthaScreen Assay; LRRK2 G2019S; mean IC50 values; Examples 185-215; read-out: LRRK2 IC5)

T1 sequence (Q5S007 970-2527 G2019S): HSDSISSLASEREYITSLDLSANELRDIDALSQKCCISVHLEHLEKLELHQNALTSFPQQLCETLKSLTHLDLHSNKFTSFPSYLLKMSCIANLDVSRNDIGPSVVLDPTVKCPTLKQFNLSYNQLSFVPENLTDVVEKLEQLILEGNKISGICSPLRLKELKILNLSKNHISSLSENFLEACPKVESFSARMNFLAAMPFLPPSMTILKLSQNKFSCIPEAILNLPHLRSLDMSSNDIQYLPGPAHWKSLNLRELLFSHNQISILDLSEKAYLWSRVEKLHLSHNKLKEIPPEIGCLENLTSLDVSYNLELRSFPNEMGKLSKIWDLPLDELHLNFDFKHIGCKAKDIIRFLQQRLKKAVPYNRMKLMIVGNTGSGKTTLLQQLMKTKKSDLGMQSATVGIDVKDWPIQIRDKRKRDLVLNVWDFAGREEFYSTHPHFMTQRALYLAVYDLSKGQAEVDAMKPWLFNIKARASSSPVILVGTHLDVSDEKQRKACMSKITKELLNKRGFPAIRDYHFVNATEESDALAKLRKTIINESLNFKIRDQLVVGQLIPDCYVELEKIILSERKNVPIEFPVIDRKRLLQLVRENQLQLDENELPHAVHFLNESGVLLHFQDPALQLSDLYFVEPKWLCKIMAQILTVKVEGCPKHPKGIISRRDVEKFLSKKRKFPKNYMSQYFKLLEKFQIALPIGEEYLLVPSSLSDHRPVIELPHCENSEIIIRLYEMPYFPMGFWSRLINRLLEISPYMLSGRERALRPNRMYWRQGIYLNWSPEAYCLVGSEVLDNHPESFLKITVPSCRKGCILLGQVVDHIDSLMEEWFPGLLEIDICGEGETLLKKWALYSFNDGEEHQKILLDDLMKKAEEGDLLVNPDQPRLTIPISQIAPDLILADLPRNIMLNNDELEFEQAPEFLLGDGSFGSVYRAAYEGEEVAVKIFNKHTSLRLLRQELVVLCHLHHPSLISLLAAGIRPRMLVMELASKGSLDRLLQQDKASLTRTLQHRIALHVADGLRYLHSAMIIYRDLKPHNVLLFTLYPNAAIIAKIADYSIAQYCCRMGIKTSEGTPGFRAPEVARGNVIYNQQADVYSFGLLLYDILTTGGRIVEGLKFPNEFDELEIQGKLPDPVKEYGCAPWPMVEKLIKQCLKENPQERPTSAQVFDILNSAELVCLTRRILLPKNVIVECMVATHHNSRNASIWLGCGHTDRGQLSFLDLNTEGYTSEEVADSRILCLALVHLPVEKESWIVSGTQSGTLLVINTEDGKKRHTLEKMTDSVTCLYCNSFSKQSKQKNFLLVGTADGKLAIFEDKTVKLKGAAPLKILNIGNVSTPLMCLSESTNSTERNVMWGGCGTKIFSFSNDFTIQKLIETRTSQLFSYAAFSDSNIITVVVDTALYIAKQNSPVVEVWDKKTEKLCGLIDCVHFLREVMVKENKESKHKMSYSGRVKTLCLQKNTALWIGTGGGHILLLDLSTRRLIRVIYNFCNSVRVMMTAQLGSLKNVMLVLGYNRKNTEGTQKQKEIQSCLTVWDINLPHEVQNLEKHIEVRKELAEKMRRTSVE

CC(C)Oc1ccc2[nH]nc(-c3ccnc(NC(=O)C4CCN(c5ccccn5)C4)c3)c2c1 (stereo not drawn) [Example 167]
IC50 [1]: 78 nM

CC(C)Oc1ccc2[nH]nc(-c3ccnc(NC(=O)CC4COCCO4)c3)c2c1 (stereo not drawn) [Example 168]
IC50 [1]: 33.4 nM

CC(C)Oc1ccc2[nH]nc(-c3ccnc(NC(=O)c4cc(F)cc(F)c4)c3)c2c1 [Example 169]
IC50 [1]: 169 nM

CC(C)Oc1ccc2[nH]nc(-c3ccnc(N4CCCC(O)C4)c3)c2c1 (stereo not drawn) [Example 170]
IC50 [1]: 6.4 nM

CC(C)Oc1ccc2[nH]nc(-c3ccnc(N4CCC(n5ccnc5)C4)c3)c2c1 (stereo not drawn) [Example 171]
IC50 [1]: 3.1 nM

CO[C@H]1CN(c2cc(-c3n[nH]c4ccc(OC(C)C)cc34)ccn2)C[C@@H]1O [Example 172]
IC50 [1]: 27.1 nM

CC(C)Oc1ccc2[nH]nc(-c3ccnc(N4CCC(n5cccn5)CC4)c3)c2c1 [Example 173]
IC50 [1]: 4.9 nM

CC(C)Oc1ccc2[nH]nc(-c3ccnc(N4C[C@H](F)[C@@H](F)C4)c3)c2c1 [Example 174]
IC50 [1]: 6.6 nM

CC(C)Oc1ccc2[nH]nc(-c3ccnc(N4CCC(c5ccncc5)C4)c3)c2c1 (stereo not drawn) [Example 175]
IC50 [1]: 2.2 nM

CC(C)Oc1ccc2[nH]nc(-c3ccnc(N4C[C@@H]5C[C@H]4CO5)c3)c2c1 [Example 176]
IC50 [1]: 7.1 nM

CO[C@H]1CCN(c2cc(-c3n[nH]c4ccc(OC(C)C)cc34)ccn2)C1 [Example 177]
IC50 [1]: 5.2 nM

CO[C@@H]1CCN(c2cc(-c3n[nH]c4ccc(OC(C)C)cc34)ccn2)C1 [Example 178]
IC50 [1]: 5 nM

CC(C)Oc1ccc2[nH]nc(-c3ccnc(N4C5CCCC4CC5)c3)c2c1 [Example 179]
IC50 [1]: 17.7 nM

CC(C)Oc1ccc2[nH]nc(-c3ccnc(N4CC(n5cnnc5)C4)c3)c2c1 [Example 180]
IC50 [1]: 10.2 nM

CC(C)Oc1ccc2[nH]nc(-c3ccnc(N4CC[C@H](O)C4)c3)c2c1 [Example 181]
IC50 [1]: 8.2 nM

CC(C)Oc1ccc2[nH]nc(-c3ccnc(N4CC(O)(C(F)(F)F)C4)c3)c2c1 [Example 182]
IC50 [1]: 10.8 nM

COC1CN(c2cc(-c3n[nH]c4ccc(OC(C)C)cc34)ccn2)C1 [Example 183]
IC50 [1]: 5.3 nM

CC(C)Oc1ccc2[nH]nc(-c3ccnc(N4CC(S(C)(=O)=O)C4)c3)c2c1 [Example 184]
IC50 [1]: 5.4 nM

CC(C)Oc1ccc2[nH]nc(-c3ccnc(N4CCS(=O)(=O)c5ccccc5C4)c3)c2c1 [Example 186]
IC50 [2]: 154 nM

CC(C)Oc1ccc2[nH]nc(-c3ccnc(N4CCC(n5cncn5)CC4)c3)c2c1 [Example 187]
IC50 [2]: 4 nM

CC(C)Oc1ccc2[nH]nc(-c3ccnc(N4CCCS(=O)(=O)CC4)c3)c2c1 [Example 188]
IC50 [2]: 21.4 nM

CC(C)Oc1ccc2[nH]nc(-c3ccnc(N4CCCN(S(C)(=O)=O)CC4)c3)c2c1 [Example 189]
IC50 [2]: 22.4 nM

CC(C)Oc1ccc2[nH]nc(-c3ccnc(N4CC(n5cccn5)C4)c3)c2c1 [Example 190]
IC50 [2]: 13.2 nM

CC(C)Oc1ccc2[nH]nc(-c3ccnc(N4CC[S+]([O-])CC4)c3)c2c1 [Example 191]
IC50 [2]: 7.4 nM

Cc1nnc(CN(C)c2cc(-c3n[nH]c4ccc(OC(C)C)cc34)ccn2)o1 [Example 192]
IC50 [2]: 25.3 nM

CC(C)Oc1ccc2[nH]nc(-c3ccnc(N4CCCC(c5nncn5C)C4)c3)c2c1 (stereo not drawn) [Example 193]
IC50 [2]: 6.2 nM

CC(C)Oc1ccc2[nH]nc(-c3ccnc(N4CCC(n5cnnc5)CC4)c3)c2c1 [Example 194]
IC50 [2]: 4.4 nM

CCc1nnc2n1CCN(c1cc(-c3n[nH]c4ccc(OC(C)C)cc34)ccn1)C2 [Example 195]
IC50 [2]: 7.2 nM

CC(C)Oc1ccc2[nH]nc(-c3ccnc(N4CCn5ccnc5C4)c3)c2c1 [Example 196]
IC50 [2]: 8.6 nM

Cc1nc2c(o1)CCN(c1cc(-c3n[nH]c4ccc(OC(C)C)cc34)ccn1)C2 [Example 197]
IC50 [2]: 12.8 nM

Cc1nc2c(o1)CN(c1cc(-c3n[nH]c4ccc(OC(C)C)cc34)ccn1)CC2 [Example 198]
IC50 [2]: 9.2 nM

CC(C)Oc1ccc2[nH]nc(-c3ccnc(N4CCN(c5ccccc5)C(=O)C4)c3)c2c1 [Example 199]
IC50 [2]: 8.9 nM

CC(C)Oc1ccc2[nH]nc(-c3ccnc(N4CCN(c5ccccn5)CC4)c3)c2c1 [Example 200]
IC50 [2]: 10.9 nM

CC(C)Oc1ccc2[nH]nc(-c3ccnc(N4CCCC4)c3)c2c1 [Example 201]
IC50 [2]: 5 nM

CC(C)Oc1ccc2[nH]nc(-c3ccnc(N4CCN(c5cnccn5)CC4)c3)c2c1 [Example 202]
IC50 [2]: 6.4 nM

CC(C)Oc1ccc2[nH]nc(-c3ccnc(N4CCN(c5nccs5)CC4)c3)c2c1 [Example 203]
IC50 [2]: 13.4 nM

CC(C)Oc1ccc2[nH]nc(-c3ccnc(N4CCN(c5ncccn5)CC4)c3)c2c1 [Example 204]
IC50 [2]: 7.9 nM

CC(C)Oc1ccc2[nH]nc(-c3ccnc(N4CCCC(c5ccncn5)C4)c3)c2c1 (stereo not drawn) [Example 205]
IC50 [2]: 6.4 nM

Cc1ncc(N2CCN(c3cc(-c4n[nH]c5ccc(OC(C)C)cc45)ccn3)CC2)s1 [Example 206]
IC50 [2]: 10.5 nM

Cc1nonc1N1CCN(c2cc(-c3n[nH]c4ccc(OC(C)C)cc34)ccn2)CC1 [Example 207]
IC50 [2]: 20.8 nM

CC(C)Oc1ccc2[nH]nc(-c3ccnc(N4Cc5cccnc5C4)c3)c2c1 [Example 208]
IC50 [2]: 17.5 nM

CC(C)Oc1ccc2[nH]nc(-c3ccnc(N4CCCN(c5ncccn5)CC4)c3)c2c1 [Example 209]
IC50 [2]: 25.5 nM

CC(C)Oc1ccc2[nH]nc(-c3ccnc(N4CCN(C5CC5)CC4)c3)c2c1 [Example 210]
IC50 [2]: 7.4 nM

CC(C)Oc1ccc2[nH]nc(-c3ccnc(N4CCN(CC5CC5)CC4)c3)c2c1 [Example 211]
IC50 [2]: 6.2 nM

CC(C)Oc1ccc2[nH]nc(-c3ccnc(N4CCN(c5ncc6ccccc6n5)CC4)c3)c2c1 [Example 212]
IC50 [2]: 70.6 nM

CC(C)Oc1ccc2[nH]nc(-c3ccnc(N4CC(F)(F)C4)c3)c2c1 [Example 213]
IC50 [2]: 16.7 nM

CC(C)Oc1ccc2[nH]nc(-c3ccnc(N4CCn5nc(C6CC6)nc5C4)c3)c2c1 [Example 214]
IC50 [2]: 15.4 nM

Cc1nnc(C2CCN(c3cc(-c4n[nH]c5ccc(OC(C)C)cc45)ccn3)CC2)o1 [Example 215]
IC50 [2]: 6 nM

CCOc1ccc2[nH]nc(-c3ccnc(N4CCC(F)(F)CC4)c3)c2c1 [Example 216]
IC50 [1]: 5.4 nM

CCOc1ccc2[nH]nc(-c3ccnc(N4CCN(C)C(=O)C4)c3)c2c1 [Example 217]
IC50 [1]: 4.9 nM

CCOc1ccc2[nH]nc(-c3ccnc(N4CCC(n5cccn5)CC4)c3)c2c1 [Example 218]
IC50 [1]: 14.4 nM

CCOc1ccc2[nH]nc(-c3ccnc(N4CC(C#N)(c5ccccc5)C4)c3)c2c1 [Example 219]
IC50 [1]: 70 nM

CCOc1ccc2[nH]nc(-c3ccnc(N4CCC5OCCC54)c3)c2c1 (stereo not drawn) [Example 220]
IC50 [1]: 22.6 nM

CCOc1ccc2[nH]nc(-c3ccnc(N4C[C@@H]5C[C@H]4CO5)c3)c2c1 [Example 221]
IC50 [1]: 20.9 nM

CCOc1ccc2[nH]nc(-c3ccnc(N4CCC(n5cccn5)C4)c3)c2c1 (stereo not drawn) [Example 222]
IC50 [1]: 9.3 nM

CCOc1ccc2[nH]nc(-c3ccnc(N4CCC(F)(F)C4)c3)c2c1 [Example 223]
IC50 [1]: 13.5 nM

CCOc1ccc2[nH]nc(-c3ccnc(N4CCC(C#N)(c5ccccc5)C4)c3)c2c1 (stereo not drawn) [Example 225]
IC50 [1]: 16.3 nM

CCOc1ccc2[nH]nc(-c3ccnc(N4CCn5ccnc5C4)c3)c2c1 [Example 226]
IC50 [1]: 18.9 nM

CCOc1ccc2[nH]nc(-c3ccnc(N4CC[C@@H](OC)C4)c3)c2c1 [Example 227]
IC50 [1]: 11.3 nM

CCOc1ccc2[nH]nc(-c3ccnc(N4C5CCCC4CC5)c3)c2c1 [Example 228]
IC50 [1]: 48.9 nM
